Here are results for 27 compounds from US9051333B2, “6,7-dihydroimidazo [2,1-b] [1,3]oxazine bactericides” (OTSUKA PHARMACEUTICAL CO., LTD., priority 2011, dated 2015).

Structures are written as SMILES. Converted amounts (≈) assume the structure as drawn. Bounds are passed on as bounds.

The test system of one test is Mycobacterium tuberculosis (M. tuberculosis kurono). The test can be described thus: Antimicrobial Assay (Agar Plate Dilution Method), M. tuberculosis kurono. Format: cell-based. Particulars: 336 h, M. tuberculosis kurono, 7H11 agar medium, cultured at 37° C. for 14 days, read-out: Minimum Inhibitory Concentration.
With `O=[N+]([O-])c1cn2c(n1)O[C@@H](COc1ccc(N3CCC(Cc4ccc(OC(F)(F)F)cc4)CC3)cc1)CC2` [Example 383, (R)-2-nitro-7-{4-[4-(4-trifluoromethoxybenzyl)piperidin-1-yl]phenoxymethyl}-6,7-dihydro-5H-imidazo[2,1-b][1,3]oxazine], the MIC amounted to 0.003 µg/mL (≈ 0.00563 µM).
The same measure, in the same setting: the same measure for `COC1(c2ccc(C(F)(F)F)cc2)CCN(c2ccc(OC[C@H]3CCn4cc([N+](=O)[O-])nc4O3)cc2)CC1` [Example 471, (R)-7-{4-[4-methoxy-4-(4-trifluoromethylphenyl)piperidin-1-yl]phenoxymethyl}-2-nitro-6,7-dihydro-5H-imidazo[2,1-b][1,3]oxazine]: 0.012 µg/mL (≈ 0.0225 µM); for `O=[N+]([O-])c1cn2c(n1)O[C@@H](COc1ccc(N3CCN(Cc4ccc(OCc5ccc(C(F)(F)F)cc5)cc4)CC3)cc1)CC2` [Example 182, (R)-2-nitro-7-(4-{4-[4-(4-trifluoromethylbenzyloxy)benzyl]piperazin-1-yl}phenoxymethyl)-6,7-dihydro-5H-imidazo[2,1-b][1,3]oxazine]: at most 0.0015 µg/mL.
Same read-out and setting: the same measure for `CC1(COc2ccc(N3CCC(CCc4ccc(OC(F)(F)F)cc4)CC3)cc2)CCn2cc([N+](=O)[O-])nc2O1` (stereo not drawn) [Example 382, 7-methyl-2-nitro-7-(4-{4-[2-(4-trifluoromethoxyphenyl)ethyl]piperidin-1-yl}phenoxymethyl)-6,7-dihydro-5H-imidazo[2,1-b][1,3]oxazine]: 0.012 µg/mL (≈ 0.0214 µM).
On the same count and under the same terms, under `O=[N+]([O-])c1cn2c(n1)O[C@@H](COc1ccc(N3CCC(CCCc4ccc(C(F)(F)F)cc4)CC3)cc1)CC2` [Example 400, (R)-2-nitro-7-(4-{4-[3-(4-trifluoromethylphenyl)propyl]piperidin-1-yl}phenoxymethyl)-6,7-dihydro-5H-imidazo[2,1-b][1,3]oxazine] stands at most 0.0004 µg/mL.
Turning to `O=[N+]([O-])c1cn2c(n1)O[C@@H](COc1ccc(N3CCN(CC4CCC(C(F)(F)F)CC4)CC3)cc1)CC2` (stereo partly drawn) [Example 414, (R)-2-nitro-7-{4-[4-(4-trifluoromethyl-cyclohexylmethyl)piperazin-1-yl]phenoxymethyl}-6,7-dihydro-5H-imidazo[2,1-b][1,3]oxazine], the MIC is 0.006 µg/mL (≈ 0.0115 µM).
With `O=[N+]([O-])c1cn2c(n1)O[C@@H](COc1ccc3nc(OCc4ccc(OC(F)(F)F)cc4)ccc3c1)CC2` [Example 153, 6-((R)-2-nitro-6,7-dihydro-5H-imidazo[2,1-b][1,3]oxazin-7-ylmethoxy)-2-(4-trifluoromethoxybenzyloxy)quinoline], the MIC was 0.024 µg/mL (≈ 0.0465 µM).
On the same count and under the same terms, under `O=[N+]([O-])c1cn2c(n1)O[C@@H](COc1ccc(N3CCN(c4ccc(OCc5ccc(OC(F)(F)F)cc5)cc4)CC3)cc1)CC2` [Example 198, (R)-2-nitro-7-(4-{4-[4-(4-trifluoromethoxybenzyloxy)phenyl]piperazin-1-yl}phenoxymethyl)-6,7-dihydro-5H-imidazo[2,1-b][1,3]oxazine] stands at most 0.0015 µg/mL; under `O=[N+]([O-])c1cn2c(n1)O[C@H](COc1ccc(N3CCN(Cc4ccc(NCc5ccc(C(F)(F)F)cc5)cc4)CC3)cc1)CC2` [Example 290, N-(4-{4-[4-((S)-2-nitro-6,7-dihydro-5H-imidazo[2,1-b][1,3]oxazin-7-ylmethoxy)phenyl]piperazin-1-ylmethyl}phenyl)-N-(4-trifluoromethylbenzyl)amine], 0.0008 µg/mL (≈ 0.00128 µM).
Still for that read-out and setting: the same measure for `CN(c1ccc(OC(F)(F)F)cc1)C1CCN(c2ccc(OC[C@H]3CCn4cc([N+](=O)[O-])nc4O3)cc2)CC1` [Example 90, N-methyl-N-{1-[4-((R)-2-nitro-6,7-dihydro-5H-imidazo[2,1-b][1,3]oxazin-7-ylmethoxy)phenyl]piperidin-4-yl}-N-(4-trifluoromethoxyphenyl)amine]: 0.012 µg/mL (≈ 0.0219 µM); for `O=[N+]([O-])c1cn2c(n1)OC(COc1ccc(-c3csc(-c4ccc(OC(F)(F)F)cc4)n3)cc1)CC2` (stereo not drawn) [Example 56, 2-nitro-7-{4-[2-(4-trifluoromethoxyphenyl)thiazol-4-yl]phenoxymethyl}-6,7-dihydro-5H-imidazo[2,1-b][1,3]oxazine]: 0.012 µg/mL (≈ 0.0231 µM).
Consider `O=[N+]([O-])c1cn2c(n1)O[C@@H](COc1ccc3c(c1)CCN(Cc1ccc(OCc4ccc(C(F)(F)F)cc4)cc1)C3)CC2` [Example 304, 6-((R)-2-nitro-6,7-dihydro-5H-imidazo[2,1-b][1,3]oxazin-7-ylmethoxy)-2-[4-(4-trifluoromethylbenzyloxy)benzyl]-1,2,3,4-tetrahydroisoquinoline], for which the MIC was found to be 0.012 µg/mL (≈ 0.0202 µM).
Still for that read-out and setting: the same measure for `CC1(COc2ccc(N3CCN(C/C=C/c4ccc(OC(F)(F)F)cc4)CC3)cc2)CCn2cc([N+](=O)[O-])nc2O1` (stereo not drawn) [Example 411, 7-methyl-2-nitro-7-(4-{4-[(E)-3-(4-trifluoromethoxyphenyl)allyl]piperazin-1-yl}phenoxymethyl)-6,7-dihydro-5H-imidazo[2,1-b][1,3]oxazine]: 0.006 µg/mL (≈ 0.0105 µM); for `C[C@@H]1CN(Cc2ccc(Oc3ccc(OC(F)(F)F)cc3)cc2)CCN1c1ccc(OC[C@H]2CCn3cc([N+](=O)[O-])nc3O2)cc1` [Example 335, (R)-7-(4-{(R)-2-methyl-4-[4-(4-trifluoromethoxyphenoxy)benzyl]piperazin-1-yl}phenoxymethyl)-2-nitro-6,7-dihydro-5H-imidazo[2,1-b][1,3]oxazine]: 0.0015 µg/mL (≈ 0.00235 µM); for `O=[N+]([O-])c1cn2c(n1)O[C@@H](COc1ccc(N3CCC(C4CCN(Cc5ccc(C(F)(F)F)cc5)CC4)CC3)cc1)CC2` [Example 415, (R)-2-nitro-7-{4-[1′-(4-trifluoromethylbenzyl)-4,4′-bipiperidin-1-yl]phenoxymethyl}-6,7-dihydro-5H-imidazo[2,1-b][1,3]oxazine]: 0.0015 µg/mL (≈ 0.0025 µM).
On the same count and under the same terms, under `O=[N+]([O-])c1cn2c(n1)O[C@@H](COc1ccc(N3CCN(C/C=C/c4ccc(C(F)(F)F)cc4)CC3)cc1)CC2` [Example 372, (R)-2-nitro-7-(4-{4-[(E)-3-(4-trifluoromethylphenyl)allyl]piperazin-1-yl}phenoxymethyl)-6,7-dihydro-5H-imidazo[2,1-b][1,3]oxazine] stands 0.006 µg/mL (≈ 0.011 µM); under `C[C@@H]1CN(c2ccc(OC[C@H]3CCn4cc([N+](=O)[O-])nc4O3)cc2)CCN1Cc1ccc(OCc2ccc(C(F)(F)F)cc2)cc1` [Example 299, (R)-7-(4-{(R)-3-methyl-4-[4-(4-trifluoromethylbenzyloxy)benzyl]piperazin-1-yl}phenoxymethyl)-2-nitro-6,7-dihydro-5H-imidazo[2,1-b][1,3]oxazine], 0.0008 µg/mL (≈ 0.00125 µM).
On the same count and under the same terms, under `O=[N+]([O-])c1cn2c(n1)O[C@@H](COc1ccc(-c3ccc(N4CCC(O)(C(F)(F)F)CC4)cc3)cc1)CC2` [Example 379, 1-[4′-((R)-2-nitro-6,7-dihydro-5H-imidazo[2,1-b][1,3]oxazin-7-ylmethoxy)biphenyl-4-yl]-4-trifluoromethylpiperidin-4-ol] stands 0.1 µg/mL (≈ 0.193 µM).
With `O=[N+]([O-])c1cn2c(n1)OC(COc1ccc(N3CCN(CCCc4ccc(Oc5ccc(OC(F)(F)F)cc5)cc4)CC3)cc1)CC2` (stereo not drawn) [Example 64, 2-nitro-7-[4-(4-{3-[4-(4-trifluoromethoxyphenoxy)phenyl]propyl}piperazin-1-yl)phenoxymethyl]-6,7-dihydro-5H-imidazo[2,1-b][1,3]oxazine], the MIC is at most 0.006 µg/mL.
The same measure, in the same setting: under `O=[N+]([O-])c1cn2c(n1)OC(COc1ccc(N3CCC(Oc4ccc(OC(F)(F)F)cc4)CC3)cc1)CC2` (stereo not drawn) [Example 1, 2-nitro-7-{4-[4-(4-trifluoromethoxyphenoxy)piperidin-1-yl]phenoxymethyl}-6,7-dihydro-5H-imidazo[2,1-b][1,3]oxazine] stands 0.024 µg/mL (≈ 0.0449 µM).
On the same count and under the same terms, under `O=[N+]([O-])c1cn2c(n1)OC(COc1ccc(N3CCN(Cc4ccc(OC(F)(F)F)cc4)CC3)cc1)CC2` (stereo not drawn) [Example 3, 2-nitro-7-{4-[4-(4-trifluoromethoxybenzyl)piperazin-1-yl]phenoxymethyl}-6,7-dihydro-5H-imidazo[2,1-b][1,3]oxazine] stands 0.05 µg/mL (≈ 0.0937 µM).
Turning to `O=[N+]([O-])c1cn2c(n1)OC(COc1ccc(-c3coc(COc4ccc(OC(F)(F)F)cc4)n3)cc1)CC2` (stereo not drawn) [Example 53, 2-nitro-7-{4-[2-(4-trifluoromethoxyphenoxymethyl)oxazol-4-yl]phenoxymethyl}-6,7-dihydro-5H-imidazo[2,1-b][1,3]oxazine], the MIC is 0.1 µg/mL (≈ 0.188 µM).
Turning to `O=[N+]([O-])c1cn2c(n1)OC(COc1ccc(N3CCC(CCOc4ccc(OC(F)(F)F)cc4)CC3)nc1)CC2` (stereo not drawn) [Example 79, 2-nitro-7-(6-{4-[2-(4-trifluoromethoxyphenoxy)ethyl]piperidin-1-yl}pyridin-3-yloxymethyl)-6,7-dihydro-5H-imidazo[2,1-b][1,3]oxazine], the MIC stood at 0.012 µg/mL (≈ 0.0213 µM).
Same read-out and setting: under `O=[N+]([O-])c1cn2c(n1)OC(COc1ccc(C3CCN(Cc4ccc(OC(F)(F)F)cc4)CC3)cc1)CC2` (stereo not drawn) [Example 364, 2-nitro-7-{4-[1-(4-trifluoromethoxybenzyl)piperidin-4-yl]phenoxymethyl}-6,7-dihydro-5H-imidazo[2,1-b][1,3]oxazine] stands 0.024 µg/mL (≈ 0.0451 µM); under `O=[N+]([O-])c1cn2c(n1)O[C@@H](COc1ccc(N3CCC(CCCOc4cccc(C(F)(F)F)c4)CC3)cc1)CC2` [Example 395, (R)-2-nitro-7-(4-{4-[3-(3-trifluoromethylphenoxy)propyl]piperidin-1-yl}phenoxymethyl)-6,7-dihydro-5H-imidazo[2,1-b][1,3]oxazine], 0.003 µg/mL (≈ 0.00535 µM).
The same measure, in the same setting: the same measure for `O=[N+]([O-])c1cn2c(n1)O[C@H](COc1ccc(-c3ccc(CN4CCC(Oc5ccc(OC(F)(F)F)cc5)CC4)cc3)cc1)CC2` [Example 282, (S)-2-nitro-7-{4′-[4-(4-trifluoromethoxyphenoxy)piperidin-1-ylmethyl]biphenyl-4-yloxymethyl}-6,7-dihydro-5H-imidazo[2,1-b][1,3]oxazine]: 0.006 µg/mL (≈ 0.00961 µM).

Staying with this test, now noted: 336 h, read-out: Minimum Inhibitory Concentration.
As for `O=[N+]([O-])c1cn2c(n1)O[C@@H](COc1ccc(N3CCN(S(=O)(=O)C(F)(F)C(F)(F)C(F)(F)C(F)(F)F)CC3)cc1)CC2` [Example 380, (R)-2-nitro-7-{4-[4-(nonafluorobutane-1-sulfonyl)piperazin-1-yl]phenoxymethyl}-6,7-dihydro-5H-imidazo[2,1-b][1,3]oxazine], the MIC was 0.012 µg/mL (≈ 0.0187 µM).
